The nature of series [1]: Chemical stability in aqueous solutions, degradation followed by HPLC. In kind it is physicochemical. The procedure: The compounds were first dissolved in methanol (30%) or acetonitrile (50%) and then diluted to the final concentrations with water. The time-course of degradation was monitored by HPLC using an Agilent Technologies HPLC chromatograph 1200 Series equipped with a photo-diode array (PDA) detector, a binary-gradient high-pressure pump, and an automatic sampler. The column used was a LiChroCART® 125-4 LiChrospher® 100 RP-18 (5 μm, Merck Millipore) maintained at 25 °C. The solvents were (A) water + 0.1% formic acid and (B) acetonitrile, and the flow rate was 0.8 ml min^–1. The initial mobile phase, 95% A / 5% B, was held for 3 min and then ramped linearly to 100% B at 23 min and held for 5 min before resetting to the original conditions. The sample injection volume was 10 μl. PDA detection was by absorbance in the 200–600-nm wavelength range. Peak detection was at the optimum wavelength (254 nm) and peak areas were used for quantification. Initial and subsequent measurements of peak area attributable to the tested compound were used to fit exponential half-life curves and to calculate first-order rate constants. Stability data allowed for calculation of the time in hours for half of the tested compound to be hydrolysed (t1/2).
Natural and synthetic SLs are rather sensitive to hydrolysis at pH 7 and are readily decomposed through the cleavage of the D-ring at pH 9.38 ([Vurro et al., 2016]). Therefore, differences in activity among SL analogues may be attributed to their instability in the aqueous medium. In order to address this point, the stability in aqueous solutions of the newly synthesized SL-D-lactams was tested, and compared to the (+)-GR24 standard ([Kannan and Zwanenburg, 2014]; [Halouzka et al., 2018]). Two different conditions were considered, a 30% solution of MeOH in water and a 1:1 solution of acetonitrile in water. As expected, stability in MeOH was highly compromised for all compounds, but to a greater extent for analogues showing both the Michael acceptor function (enol ether bridge) and an unprotected N in the D-lactam ring, as for rac-3, rac-4, rac-5, and rac-7 (Table 1): after a few hours 50% of the compounds were degraded. This was not surprising from a chemical point of view, as the functional group in SL-D-lactams is an aminal, which is more prone to hydrolysis than the acetal of the natural SL skeleton. […] For rac-5, the NH compound in the EGO10 family, the half-life dropped to 2 h.

Series [2] concerns Phelipanche aegyptiaca seeds. The experiment in a line: Germination-inducing activity on parasitic seeds. In kind it is in vivo. The following applies: for Fold lower potency than rac-GR24 (germination): compared with rac-GR24; for Concentration at which high germination activity was shown: high activity only at this concentration, germination normalized to rac-GR24 0.1 μM. The procedure:
Seeds of Phelipanche aegyptiaca were collected from field-grown tomato in the West Galilee region of Israel. The seeds were stored in glass vials in the dark at room temperature until their use in germination tests. For the preparation of test solutions, the compound to be tested was weighed out very accurately, dissolved in acetone at 10^–2 M and then diluted with sterile distilled water to the desired concentrations. All solutions were prepared just before use. Seeds were surface-sterilized and preconditioned as described by [Bhattacharya et al. (2009)]. Briefly, after exposure for 5 min to 50% (v/v) aqueous solutions of commercial bleach (2% hypochlorite), seeds were rinsed with sterile distilled water. For preconditioning, seeds were placed on glass fibre filter discs using a sterile toothpick (approximately 50 seeds per disc); the glass fibre discs were placed on two filter paper discs, wetted with sterile distilled water, and incubated at 25 °C in the dark for 6 d. The preconditioned seeds were then allowed to dry completely in a laminar flow cabinet, after which they were treated with each compound at five different concentrations: 10^–5 M, 10^–6 M, 10^–7 M, 10^–8 M, and 10^–9 M. Their germination rate was evaluated under a stereomicroscope 7 d after the beginning of the treatment. For each concentration, at least 250 seeds were scored; synthetic SL rac-GR24 was included as a positive control across the same range of concentrations, while a solution of 0.001% acetone in sterile distilled water was included as a negative control. Seeds were scored as germinated if the radicle protruded through the seed coat 1 week after treatment. Germination values were normalized to those of rac-GR24 at 10^–7 M.
Fig. 3. Germination-inducing activity on Phelipanche aegyptiaca seeds of rac-1–9 and of strigol, ST23b, EGO10, and EDOT at different concentrations, compared to rac-GR24 0.1 μM as a positive control and to acetone as a negative control. […] The x-axis indicates the range of concentrations. Data are means (±SD) of n>250 seeds. Confidence intervals at 95% are used to express errors of the means. The data for rac-1–9 are indicated by ‘D-lactams’.

Series [3] addresses T1, AtD14 fused to firefly luciferase (D14::LUC) (Arabidopsis thaliana, UniProt Q9SQR3).
T1 construct: a pDONOR207 carrying the D14 promoter fused to the D14 CDS; expressed in transfected cells
T1 sequence (Q9SQR3 1-267): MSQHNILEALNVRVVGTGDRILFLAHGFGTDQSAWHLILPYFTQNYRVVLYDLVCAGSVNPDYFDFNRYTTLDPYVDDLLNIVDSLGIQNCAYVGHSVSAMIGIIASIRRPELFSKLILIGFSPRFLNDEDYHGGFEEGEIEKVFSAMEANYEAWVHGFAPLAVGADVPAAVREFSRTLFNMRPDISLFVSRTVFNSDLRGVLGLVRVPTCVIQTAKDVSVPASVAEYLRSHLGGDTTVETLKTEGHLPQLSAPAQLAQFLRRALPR
The experiment in a line: Luminometer (luciferase) assay: D14::LUC degradation in transgenic Arabidopsis seedlings. The note with it: for Activity in the luciferase assay at 1 μM: weaker than (+)-GR24; for D14 degradation in the luciferase assay: 0.01–100 μM range, racemic mixtures. In kind it is in vivo. The procedure:
A binary D14p::D14::LUC vector was obtained by LR-recombination (Invitrogen) of a pDONOR207 carrying the D14 promoter fused to the D14 CDS ([Chevalier et al., 2014]) in pGWB435 ([Nakagawa et al., 2007]). Transgenic D14::D14::LUC Arabidopsis plants were generated by agroinfiltration of Col-0 plants using the floral dip method ([Clough and Bent, 1998]). Seeds were surface-sterilized with an 8% aqueous solution of commercial bleach in distilled water for 5 min and rinsed five times with sterile distilled water. Sterile seeds were plated on MS medium (pH 5.8) ([Murashige and Skoog, 1962]) without sucrose solidified with 1.2% Agar, and kept at 4 °C for 3 d (stratification). Seeds were then incubated for 7 d in a growth chamber at 25 °C and a photoperiod of 16 h light/8 h dark. SL analogues and mimics (Figs 1, 2) were accurately weighed and dissolved in acetone at 10^–2 M. Five different concentrations (10^–4 M, 10^–5 M, 10^–6 M, 10^–7 M, 10^–8 M) were prepared by 1:10 serial dilutions in liquid MS medium, together with blank controls containing corresponding water and acetone volumes in the medium. D-Luciferin (potassium salt) stock was prepared at 25 mg ml^–1 in DMSO, aliquoted and stored at –80 °C until use; all other solutions were prepared just before the assay. Using tweezers, 7-d-old Arabidopsis seedlings were placed in a 96-well microtiter plate with their cotyledons facing up (one seedling per well, in 170 µl of liquid MS medium), and 15 µl of luciferin (0.125 mg ml^–1, diluted 1:200 in MS from stock) was added to each well, corresponding to 1.875 µg. The plate was covered with a transparent film with a hole poked above each well to allow for gas exchange. Measurements were taken every 15 min in a multimode reader (LB942 Tristar2 S, Berthold Technologies) for the following 24 h; the signal was allowed to stabilize for 2–3 h in the light before treatments were started by adding 15 µl per well of the different SLs in MS medium, thus reaching a final volume in each well of 200 µl and 9.4 µg ml^– of luciferin. Appropriate blank controls were added as well. Each treatment was applied to a minimum of 16 wells (seedlings), each of which was measured individually over time. The percentage efficacy of each compound molecule was calculated 6 h after treatment as a function of the decrease in D14::LUC-emitted luminescence with respect to (+)-GR24 1 µM (i.e. GR24^5DS), assuming that the latter, minus the drift of the corresponding blank control, had 100% efficacy. For calibration purposes, SL analogues that had already been characterized, namely (±)-ST23b, (±)-EGO10, and (±)-EDOT ([Prandi et al., 2011]), were tested across the same concentration range, along with (±)-strigol (Chiralix, NL). The half maximal-effective concentration (EC50) for (+)-GR24 was calculated by linear regression fitting of the data (n=5, with at least three individual seedlings and values being pooled for each replicate) at the different concentrations, minus the values for acetone-treated samples (negative controls) and normalized in relation to (+)-GR24 0.01 μM, which was set to 0%. Confidence intervals at 95% were used to express errors of the means.
D14 is a target for proteasome-dependent destruction upon interaction with its ligand(s), which explains why fluorescence of D14::GFP fusion proteins is quenched upon SL treatment in transgenic Arabidopsis ([Chevalier et al., 2014]). We exploited this molecular network to implement a quantitative activity assay that inversely correlated luminescence to perception of SL-related molecules in transgenic Arabidopsis expressing D14::LUC under the control of the D14 endogenous promoter. […] We then used the assay to test various SLs in the same range, namely strigol as an example of natural SLs; ST23b, EGO10, and EDOT (Fig. 1, all used as rac mixtures) as examples of active SL analogues; and the new set of SL-D-lactams rac-1–9 (Fig. 2).
Fig. 4. Luciferase assay. […]

[4] abbreviates: aqueous acetonitrile solution in HPLC vials, pH 6.7, 1:1 acetonitrile:water, 21 °C, pH 6.7, extrapolated from plots of peak area versus time, read-out: Half-life (t1/2, h) ACN:Water, 1:1 (converted).
Where [5] appears, read: aqueous methanol solution in HPLC vials, pH 6.7, 30% MeOH in water, 21 °C, pH 6.7, extrapolated from plots of peak area versus time, read-out: Half-life (t1/2, h) 30% MeOH (converted).
The mark [6] stands for this setting: GraphPad fit, normalized with low acetone control.

SMILES strings stand for the structures. Where two headings read alike, the source gives them in different places.

As to `CC1=C[C@H](O/C=C2/C(=O)O[C@H]3c4ccccc4C[C@@H]23)N(C(=O)OC(C)(C)C)C1=O` (racemic) [rac-2], the results for the half-life at 200 μg ml^–1 in series [1] (setting [4]) and in series [1] (setting [5]) were 140 h and 21 h, respectively. The “Concentration at which some germination activity could still be detected” value in series [2] (tested 10^-9 to 10^-5 M) stood at 1 µM.
As to `CC1=C[C@H](Oc2ccc(Br)cc2)NC1=O` (racemic) [rac-7], the half-life at 200 μg ml^–1 in series [1] (setting [4]) was 17 h. Further, in series [1] (setting [5]), the half-life at 200 μg ml^–1 was 11 h. Further, in series [2], the “Fold lower potency than rac-GR24 (germination)” value was ~ 100 fold and the “Concentration at which high germination activity was shown” value is 10 µM.
Taken in the same sequence, the figures for `CC1=C[C@H](O/C=C2/C(=O)O[C@@H]3c4ccccc4C[C@H]23)N(C(=O)OC(C)(C)C)C1=O` (racemic) [rac-1] were 720 h, 110 h, ~ 100 fold and 10 µM.
`CC1=CC(O/C=C2/C(=O)c3c(c4cc(-c5scc6c5OCCO6)ccc4n3C)C2C)OC1=O` (centres unmarked) [EDOT]: in series [3], the “Activity in the luciferase assay at 1 μM” value is “significant activity” and the “D14 degradation in the luciferase assay” value is given as “induced high levels of D14 degradation”.
As for `CC1=C[C@H](Oc2ccc(Br)cc2)N(C(=O)OC(C)(C)C)C1=O` (racemic) [rac-8], the half-life at 200 μg ml^–1 in series [1] (setting [4]) is 1080 h; in series [1] (setting [5]), 230 h.
For `CC1=C[C@H](O/C=C2/C(=O)O[C@@H]3C4=C(C[C@H]23)[C@@H](O)CCC4(C)C)OC1=O` [strigol], in series [3], the “Activity in the luciferase assay at 1 μM” value is “significant activity” and the “D14 degradation in the luciferase assay” value was “induced high levels of D14 degradation”.
With `CC1=C[C@H](O/C=C2/C(=O)O[C@@H]3c4ccccc4C[C@H]23)OC1=O` [(+)-GR24], the half-life at 200 μg ml^–1 in series [1] (buffer, pH 6.7, Half-life (t1/2, h) 30% MeOH) is 80 h; in series [1] (buffer, pH 6.7, Half-life (t1/2, h) ACN:Water, 1:1), 3380 h. The “HILLSLOPE best-fit value (Table S1)” value in series [3] (setting [6]) is on record as 0.4764. In addition, the “LOGIC50 best-fit value (Table S1)” value in series [3] (setting [6]) was -5.791. Also, the DC50 in series [3] (read-out: EC50 (D14::LUC assay), 6 h after treatment, 0.01–100 μM, n=5) is 1.62 µM; in series [3] (read-out: EC50 best-fit value (Table S1), GraphPad fit, normalized with low acetone control), 1.62 µM.
As for `CC1=CC(O/C=C2/C(=O)c3c(c4cc(-c5ccc(N(C)C)cc5)ccc4n3C)C2C)OC1=O` (centres unmarked) [ST23b], in series [3], the “Activity in the luciferase assay at 1 μM” value was “significant activity” and the “D14 degradation in the luciferase assay” value was “induced high levels of D14 degradation”.
Take `CC1=C[C@H](O/C=C2\Cc3c([nH]c4ccccc34)C2=O)N(C(=O)OC(C)(C)C)C1=O` (racemic) [rac-6]: the half-life at 200 μg ml^–1 in series [1] (setting [4]) is 528 h; in series [1] (setting [5]), 190 h.
For `CC1=CC(O/C=C2\Cc3c(n(C)c4ccccc34)C2=O)OC1=O` (centres unmarked) [EGO10], in series [3], the “Activity in the luciferase assay at 1 μM” value is given as “significant activity” and the “D14 degradation in the luciferase assay” value is reported as “induced high levels of D14 degradation”.
For the compound `CC1=C[C@H](O/C=C2\Cc3c(n(C)c4ccccc34)C2=O)NC1=O` (racemic) [rac-5], the half-life at 200 μg ml^–1 in series [1] (setting [4]) was 24 h; in series [1] (setting [5]), 2 h.
On to `CC1=C[C@H](O/C=C2/C(=O)O[C@@H]3c4ccccc4C[C@H]23)OC1=O` (racemic) [rac-GR24, reference compound], for which the “Concentration of maximum germination activity” value in series [2] (concentrations equal to or above) was ≥ 0.1 µM.

Source of the values: paper PMC5913603, “Structure–activity relationships of strigolactones via a novel, quantitative in planta bioassay” (Journal of Experimental Botany, 2018).
